This experiment addresses T1, recombinant human pancreatic GLK (Homo sapiens, UniProt P35557).
T1 sequence (P35557 1-465): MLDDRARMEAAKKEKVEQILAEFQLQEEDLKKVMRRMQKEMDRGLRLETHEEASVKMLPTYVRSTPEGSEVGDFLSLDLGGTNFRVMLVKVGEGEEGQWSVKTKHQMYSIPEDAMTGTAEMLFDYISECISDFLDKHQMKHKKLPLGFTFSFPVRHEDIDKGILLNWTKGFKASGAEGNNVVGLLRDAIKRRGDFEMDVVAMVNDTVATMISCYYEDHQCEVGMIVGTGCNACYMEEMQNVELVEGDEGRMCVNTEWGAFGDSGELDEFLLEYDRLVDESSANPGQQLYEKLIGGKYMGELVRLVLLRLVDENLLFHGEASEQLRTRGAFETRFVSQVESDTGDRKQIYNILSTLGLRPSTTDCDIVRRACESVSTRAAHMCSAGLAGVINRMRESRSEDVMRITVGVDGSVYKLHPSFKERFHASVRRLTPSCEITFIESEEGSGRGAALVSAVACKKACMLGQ
The experiment can be described thus: biochemical.

The structures appear in SMILES notation.

Usually EC50 stands for the concentration needed to bring the measured effect to its halfway point. In the case of `C[C@@H](COC(F)F)Oc1cc(Oc2ccc(C(=O)N3CCC3)cc2Cl)cc(C(=O)Nc2ccn(C)n2)c1` [Example 1, 3-{[4-(Azetidin-1-ylcarbonyl)-2-chlorophenyl]oxy}-5-({(1S)-2-[(difluoromethyl)oxy]-1-methylethyvl}oxy)-N-(1-methyl-1H-pyrazol-3-yl)benzamide], the EC50 was found to be 40 nM.
